Source: US8895047B2, “Combined fibrinolytic and antimicrobial catheter and uses thereof” (priority 2007, dated 2014)

Experiments:
human urokinase enzyme = target: T1, human urokinase enzyme (Homo sapiens, UniProt P00749); experiment: uPA activity assay (chromogenic substrate) after incubation with antimicrobial agents; assay type: biochemical; conditions: for Urokinase activity in the presence of antimicrobial agent: concentrations up to 10 μg/mL, 24 hours at 37° C. with 88 units (0.5 μg) uPA in PBS, FIGS. 2 and 3
T1 construct: purchased American Diagnostica
Protocol: To check the compatibility of urokinase (uPA) and chlorhexidine acetate (CHA), human urokinase enzyme (American Diagnostica) at different concentrations (0, 0.05, 0.5, and 1.0 μg/mL) was incubated with CHA at concentrations between 0-10 μg/mL for 24 hours at 37° C. in phosphate buffered saline (PBS). Subsequently, urokinase activity was measured using uPA Activity Assay Kit (Chemicon). Samples were incubated with an assay buffer and a chromogenic substrate for uPA resulting in the formation of a colored complex followed by reading the absorbance on a spectrophotometer at 405 nm. In a 96 well plate, different combinations of chlorhexidine (CHX), gentian violet (GV), minocycline and rifampin were incubated at concentrations of 0, 1, 10 μg/mL, for 24 hours at 37° C., with 88 units (0.5 μg) of uPA in PBS. Urokinase activity was measured using uPA Activity Assay Kit as described earlier.

S. epidermidis = experiment: Minimum inhibitory concentration of chlorhexidine acetate against S. epidermidis; assay type: cell-based
Protocol: FIG. 4. Chlorhexidine activity in the presence of urokinase. […] CHA MIC Control=urokinase in tris-buffered saline (TBS)+CHA+Mueller-Hinton broth (MHB); Growth Control=dimethyl sulfoxide (DMSO)+TBS+S. epidermidis+MHB; Negative Control=DMSO+TBS+MHB.
To determine if urokinase affects the antimicrobial efficacy of chlorhexidine, the following experiment was conducted. The minimum inhibitory concentration (MIC) of chlorhexidine acetate (CHA) against S. epidermidis is 0.5 ppm in the absence of urokinase. Absorbance above baseline on the plot in […] indicates growth of microbial organisms (i.e., inability to inhibit microbial growth). An increase in the MIC would be indicative of a reduction in the antimicrobial potency of CHA due to interference by Urokinase.

human tPA = target: T2, human tPA (Homo sapiens, UniProt P00750); experiment: tPA activity assay (chromogenic substrate) after incubation with antimicrobial agents; assay type: biochemical; conditions: concentrations up to 10 μg/mL, overnight at 37° C. with 50 units human tPA; FIGS. 5 and 6
T2 construct: purchased Sigma
Protocol: Different combinations of CHX, GV, minocycline and rifampin (0, 1, 10 μg/mL) were incubated overnight with 50 units of human tPA (Sigma) at 37° C., in buffer (30 mM Tris-HCl, 30 mM Imidazole, 130 mM NaCl, 1% protease free albumin). Samples were incubated with the chromogenic substrate (Sigma); tPA activity was determined by the hydrolysis of the substrate being measured continuously at 405 nm for 5 min at 50 seconds intervals. A standard curve was generated and the units plotted against the slope of the hydrolysis reaction.

human streptokinase = target: T3, human streptokinase (Streptococcus dysgalactiae subsp. equisimilis, UniProt P00779); experiment: Streptokinase activity assay (S-2251 chromogenic substrate, plasminogen) after incubation with antimicrobial agents; assay type: biochemical; conditions: any concentration up to 10 μg/mL, overnight at 37° C. with 16.5 units streptokinase; FIG. 7
T3 construct: purchased Sigma
Protocol: In a 96 well plate, different combinations of chlorhexidine (0, 1, 10 μg/mL) and gentian violet (0, 1, 10 μg/mL) were incubated overnight with 16.5 units of human streptokinase (Sigma) at 37° C., in 10 mM Tris-HCl buffer containing 0.1M NaCl and 1 mg/mL albumin. Streptokinase activity was measured using a chromogenic substrate S-2251 (Chromogenix). Samples were incubated with 0.6 mM S-2251 and 0.1 U/ml plasminogen (Sigma) for one hour. Hydrolysis of the substrate was measured at 405 nm and a standard curve was generated with the units plotted against the slope of the hydrolysis reaction.

T2 sequence (P00750 36-562): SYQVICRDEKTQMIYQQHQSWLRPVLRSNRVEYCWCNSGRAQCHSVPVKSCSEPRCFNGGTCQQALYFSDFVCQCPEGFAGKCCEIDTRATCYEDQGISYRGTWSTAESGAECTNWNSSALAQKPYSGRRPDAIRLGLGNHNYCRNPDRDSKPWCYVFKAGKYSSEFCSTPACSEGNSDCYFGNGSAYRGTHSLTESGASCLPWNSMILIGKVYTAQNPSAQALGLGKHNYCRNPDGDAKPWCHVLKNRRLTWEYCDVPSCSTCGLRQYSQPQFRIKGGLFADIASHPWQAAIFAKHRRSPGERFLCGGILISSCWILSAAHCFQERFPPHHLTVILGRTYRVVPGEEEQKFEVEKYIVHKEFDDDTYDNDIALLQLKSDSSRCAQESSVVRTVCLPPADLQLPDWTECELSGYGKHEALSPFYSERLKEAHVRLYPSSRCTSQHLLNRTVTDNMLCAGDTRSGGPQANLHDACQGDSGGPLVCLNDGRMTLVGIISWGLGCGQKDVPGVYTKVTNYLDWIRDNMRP
T3 sequence (P00779 27-440): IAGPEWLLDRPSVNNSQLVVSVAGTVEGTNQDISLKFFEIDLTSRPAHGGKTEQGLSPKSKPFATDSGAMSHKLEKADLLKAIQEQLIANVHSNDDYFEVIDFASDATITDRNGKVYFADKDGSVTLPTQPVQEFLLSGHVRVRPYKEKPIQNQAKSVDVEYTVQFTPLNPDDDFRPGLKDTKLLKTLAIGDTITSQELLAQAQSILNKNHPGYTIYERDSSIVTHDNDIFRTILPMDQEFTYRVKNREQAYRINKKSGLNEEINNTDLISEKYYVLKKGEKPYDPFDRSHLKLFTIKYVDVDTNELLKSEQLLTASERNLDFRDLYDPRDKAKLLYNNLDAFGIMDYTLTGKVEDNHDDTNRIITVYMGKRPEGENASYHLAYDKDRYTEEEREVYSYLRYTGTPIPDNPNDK

| Urokinase activity in the presence of CHA (human urokinase enzyme; CHA 0-10 μg/mL with uPA 0-1.0 μg/mL, 24 hours at 37° C. in PBS, CHA:uPA ratio 0.05 or higher, FIG. 1) | minimum inhibitory concentration (MIC) (S. epidermidis; in the absence of urokinase) [ppm] | MIC in the presence of Urokinase (S. epidermidis; presence of urokinase, FIG. 4) | Structure (SMILES) | tPA activity in the presence of antimicrobial agent (human tPA) | Urokinase activity in the presence of antimicrobial agent (human urokinase enzyme) | streptokinase activity in the presence of antimicrobial agent (human streptokinase) |
| --- | --- | --- | --- | --- | --- | --- |
| not affected | 0.5 | not affected | CC(=O)O.CC(=O)O.NC(=N\CCCCCC/N=C(N)/N=C(\N)Nc1ccc(Cl)cc1)/N=C(\N)Nc1ccc(Cl)cc1 [CHA, chlorhexidine acetate] |  |  |  |
|  |  |  | CN(C)c1ccc(C(=C2C=CC(=[N+](C)C)C=C2)c2ccc(N(C)C)cc2)cc1 [GV, gentian violet] | not affected | not adversely affected | unaffected |
|  |  |  | [H]/N=C(\N/C(=N/[H])NCCCCCCNC(=N)NC(=N)Nc1ccc(Cl)cc1)Nc1ccc(Cl)cc1 [CHX, chlorhexidine] | not affected | not adversely affected | unaffected |
|  |  |  | CO[C@H]1/C=C/O[C@@]2(C)Oc3c(C)c(O)c4c(O)c(c(/C=N/N5CCN(C)CC5)c(O)c4c3C2=O)NC(=O)/C(C)=C\C=C\[C@H](C)[C@H](O)[C@@H](C)[C@@H](O)[C@@H](C)[C@H](OC(C)=O)[C@@H]1C [rifampin] | not affected | not adversely affected |  |
